In patent US10544103B2, “5-HT2 antagonists” (ANAMAR AB, priority 2015, dated 2020):

Molecular target: T1, 5-HT2B receptor (Homo sapiens, UniProt P41595)
T1 construct: host or cells: CHO-K1
Test: 5-HT2B receptor binding, 3H-LSD ligand displacement assay
Conditions: for inhibition at 0.01 µM: 0.01 uM compound; for inhibition at 0.1 µM: 0.1 uM compound; for inhibition at 1 µM: 1 uM compound; for inhibition at 0.001 µM: 0.001 uM compound
Protocol: 5-HT2B receptor binding (performed at Eurofins Panlabs Taiwan, Ltd.) to human receptor protein expressed in CHO-K1 cells was determined in a ligand displacement assay using ^3H-lysergic acid diethylamide (LSD) as radioligand and ketanserine as a standard reference compound. Data is presented as % displacement of radioligand at indicated compound concentrations, see Table 1 and Table 2.

T1 sequence (P41595 whole entry): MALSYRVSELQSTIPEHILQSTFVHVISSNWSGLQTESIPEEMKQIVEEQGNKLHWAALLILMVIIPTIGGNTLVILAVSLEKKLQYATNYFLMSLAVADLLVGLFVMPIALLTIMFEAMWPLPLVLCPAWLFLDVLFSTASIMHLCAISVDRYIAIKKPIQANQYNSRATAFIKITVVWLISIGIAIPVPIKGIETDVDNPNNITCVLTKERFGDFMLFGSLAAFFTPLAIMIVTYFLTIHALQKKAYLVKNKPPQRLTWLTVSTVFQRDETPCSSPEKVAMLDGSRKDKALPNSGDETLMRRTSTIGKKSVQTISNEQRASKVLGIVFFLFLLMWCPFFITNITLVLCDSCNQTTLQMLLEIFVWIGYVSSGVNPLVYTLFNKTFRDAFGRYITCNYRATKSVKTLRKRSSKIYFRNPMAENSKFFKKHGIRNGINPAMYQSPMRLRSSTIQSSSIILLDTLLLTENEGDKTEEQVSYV

Compound	inhibition at 0.01 µM [%]	inhibition at 0.1 µM [%]	inhibition at 1 µM [%]	inhibition at 0.001 µM [%]
COc1ccc(C2=NN(C(=N)N)CC2C)c(OC)c1 (stereo not drawn) [Example 66, 3-(2,4-Dimethoxyphenyl)-4-methyl-4,5-dihydro-1H-pyrazole-1-carboximidamide]	5	12	41	–
CC1CN(C(=N)N)N=C1c1ccc(O)cc1O (stereo not drawn) [Example 67, 3-(2,4-Dihydroxyphenyl)-4-methyl-4,5-dihydro-1H-pyrazole-1-carboximidamide]	9	31	72	–
COc1cc(C(F)(F)F)ccc1C1=NN(C(=N)N)CC1C (stereo not drawn) [Example 68, 3-(2-Methoxy-4-(trifluoromethyl)phenyl)-4-methyl-4,5-dihydro-1H-pyrazole-1-carboximidamide]	–	32	86	–
CC1CN(C(=N)N)N=C1c1ccc(C(F)(F)F)cc1O (stereo not drawn) [Example 69, 3-(2-Hydroxy-4-(trifluoromethyl)phenyl)-4-methyl-4,5-dihydro-1H-pyrazole-1-carboximidamide]	–	70	97	–
CC1CN(C(=N)N)N=C1c1c[nH]c2ccccc12 (stereo not drawn) [Example 70, 3-(1H-Indol-3-yl)-4-methyl-4,5-dihydro-1H-pyrazole-1-carboximidamide]	38	84	98	–
CC1CN(C(=N)N)N=C1c1ccnc2ccccc12 (stereo not drawn) [Example 71, 4-Methyl-3-(quinolin-4-yl)-4,5-dihydro-1H-pyrazole-1-carboximidamide]	11	20	43	–
CC1CN(C(=N)NCc2ccccc2)N=C1c1cccc(Cl)c1O (stereo not drawn) [Example 75, N-Benzyl-3-(3-chloro-2-hydroxyphenyl)-4-methyl-4,5-dihydro-1H-pyrazole-1-carboximidamide]	97	–	–	76
CCCCNC(=N)N1CC(C)C(c2cccc(Cl)c2OC)=N1 (stereo not drawn) [Example 78, N-butyl-3-(3-chloro-2-methoxyphenyl)-4-methyl-4,5-dihydro-1H-pyrazole-1-carboximidamide]	85	98	–	49
CCCCNC(=N)N1CC(C)C(c2cccc(Cl)c2O)=N1 (stereo not drawn) [Example 79, N-Butyl-3-(3-chloro-2-hydroxyphenyl)-4-methyl-4,5-dihydro-1H-pyrazole-1-carboximidamide]	91	94	–	79
CCCCCCNC(=N)N1CC(C)C(c2cccc(Cl)c2OC)=N1 (stereo not drawn) [Example 80, 3-(3-Chloro-2-methoxyphenyl)-N-hexyl-4-methyl-4,5-dihydro-1H-pyrazole-1-carboximidamide]	68	97	–	13
CCCCCCNC(=N)N1CC(C)C(c2cccc(Cl)c2O)=N1 (stereo not drawn) [Example 81, 3-(3-Chloro-2-hydroxyphenyl)-N-hexyl-4-methyl-4,5-dihydro-1H-pyrazole-1-carboximidamide]	96	97	–	62
CCCCCCCCCCCCNC(=N)N1CC(C)C(c2cccc(Cl)c2OC)=N1 (stereo not drawn) [Example 82, 3-(3-Chloro-2-methoxyphenyl)-N-dodecyl-4-methyl-4,5-dihydro-1H-pyrazole-1-carboximidamide]	-4	51	–	0
CCCCCCCCCCCCNC(=N)N1CC(C)C(c2cccc(Cl)c2O)=N1 (stereo not drawn) [Example 83, 3-(3-Chloro-2-hydroxyphenyl)-N-dodecyl-4-methyl-4,5-dihydro-1H-pyrazole-1-carboximidamide]	23	82	–	3
COc1c(Cl)cccc1C1=NN(C(=N)NC2CCCCC2)CC1C (stereo not drawn) [Example 84, 3-(3-Chloro-2-methoxyphenyl)-N-cyclohexyl-4-methyl-4,5-dihydro-1H-pyrazole-1-carboximidamide]	63	94	–	11
CC1CN(C(=N)NC2CCCCC2)N=C1c1cccc(Cl)c1O (stereo not drawn) [Example 85, 3-(3-Chloro-2-hydroxyphenyl)-N-cyclohexyl-4-methyl-4,5-dihydro-1H-pyrazole-1-carboximidamide]	93	101	–	47
COc1c(Cl)cccc1C1=NN(C(=N)NC2CC2)CC1C (stereo not drawn) [Example 86, 3-(3-Chloro-2-methoxyphenyl)-N-cyclopropyl-4-methyl-4,5-dihydro-1H-pyrazole-1-carboximidamide]	29	83	–	-14

Compound	inhibition at 0.01 µM [%]	inhibition at 0.1 µM [%]	inhibition at 1 µM [%]	inhibition at 0.001 µM [%]
CC1CN(C(=N)NC2CC2)N=C1c1cccc(Cl)c1O (stereo not drawn) [Example 87, 3-(3-Chloro-2-hydroxyphenyl)-N-cyclopropyl-4-methyl-4,5-dihydro-1H-pyrazole-1-carboximidamide]	84	100	–	24
COc1c(Cl)cccc1C1=NN(C(=N)Nc2ccccc2)CC1C (stereo not drawn) [Example 88, 3-(3-Chloro-2-methoxyphenyl)-4-methyl-N-phenyl-4,5-dihydro-1H-pyrazole-1-carboximidamide]	92	97	–	53
CC1CN(C(=N)Nc2ccccc2)N=C1c1cccc(Cl)c1O (stereo not drawn) [Example 89, 3-(3-Chloro-2-hydroxyphenyl)-4-methyl-N-phenyl-4,5-dihydro-1H-pyrazole-1-carboximidamide]	100	97	–	88
COc1c(Cl)cccc1C1=NN(C(=N)NC#N)CC1C (stereo not drawn) [Example 90, 3-(3-Chloro-2-methoxyphenyl)-N-cyano-4-methyl-4,5-dihydro-1H-pyrazole-1-carboximidamide]	1	-2	–	3
CC1CN(C(=N)NC#N)N=C1c1cccc(Cl)c1O (stereo not drawn) [Example 91, 3-(3-Chloro-2-hydroxyphenyl)-N-cyano-4-methyl-4,5-dihydro-1H-pyrazole-1-carboximidamide]	27	74	–	-15
COc1ccccc1C1=NN(C(=N)NCC(F)(F)C(F)(F)C(F)(F)F)CC1C (stereo not drawn) [Example 92, N-(2,2,3,3,4,4,4-Heptafluorobutyl)-3-(2-methoxyphenyl)-4-methyl-4,5-dihydro-1H-pyrazole-1-carboximidamide]	22	78	–	-3
CC1CN(C(=N)NCC(F)(F)C(F)(F)C(F)(F)F)N=C1c1ccccc1O (stereo not drawn) [Example 93, N-(2,2,3,3,4,4,4-Heptafluorobutyl)-3-(2-hydroxyphenyl)-4-methyl-4,5-dihydro-1H-pyrazole-1-carboximidamide]	80	98	–	21
COc1ccccc1C1=NN(C(=N)NCC(F)(F)F)CC1C (stereo not drawn) [Example 94, 3-(2-Methoxyphenyl)-4-methyl-N-(2,2,2-trifluoroethyl)-4,5-dihydro-1H-pyrazole-1-carboximidamide]	17	77	–	-12
CC1CN(C(=N)NCC(F)(F)F)N=C1c1ccccc1O (stereo not drawn) [Example 95, 3-(2-Hydroxyphenyl)-4-methyl-N-(2,2,2-trifluoroethyl)-4,5-dihydro-1H-pyrazole-1-carboximidamide]	70	96	–	12
COc1ccccc1C1=NN(C(=N)Nc2ccccc2)CC1C (stereo not drawn) [Example 96, 3-(2-Methoxyphenyl)-4-methyl-N-phenyl-4,5-dihydro-1H-pyrazole-1-carboximidamide]	43	93	–	19
CC1CN(C(=N)Nc2ccccc2)N=C1c1ccccc1O (stereo not drawn) [Example 97, 3-(2-Hydroxyphenyl)-4-methyl-N-phenyl-4,5-dihydro-1H-pyrazole-1-carboximidamide]	99	105	–	62
COc1ccccc1C1=NN(C(=N)Nc2ccc(C(F)(F)F)cc2)CC1C (stereo not drawn) [Example 98, 3-(2-Methoxyphenyl)-4-methyl-N-(4-(trifluoromethyl)phenyl)-4,5-dihydro-1H-pyrazole-1-carboximidamide]	41	86	–	5
CC1CN(C(=N)Nc2ccc(C(F)(F)F)cc2)N=C1c1ccccc1O (stereo not drawn) [Example 99, 3-(2-Hydroxyphenyl)-4-methyl-N-(4-(trifluoromethyl)phenyl)-4,5-dihydro-1H-pyrazole-1-carboximidamide]	89	103	–	48
COc1ccccc1C1=NN(C(=N)Nc2ccc(F)cc2)CC1C (stereo not drawn) [Example 100, N-(4-Fluorophenyl)-3-(2-methoxyphenyl)-4-methyl-4,5-dihydro-1H-pyrazole-1-carboximidamide]	27	78	–	19
CC1CN(C(=N)Nc2ccc(F)cc2)N=C1c1ccccc1O (stereo not drawn) [Example 101, N-(4-Fluorophenyl)-3-(2-hydroxyphenyl)-4-methyl-4,5-dihydro-1H-pyrazole-1-carboximidamide]	91	102	–	55
COc1ccccc1C1=NN(C(=N)Nc2ccc(Cl)cc2)CC1C (stereo not drawn) [Example 102, N-(4-Chlorophenyl)-3-(2-methoxyphenyl)-4-methyl-4,5-dihydro-1H-pyrazole-1-carboximidamide]	44	92	–	17
